Measurements reported in BindingDB's records for patent US11547697 (Millennium Pharmaceuticals, 2023).

How the values were obtained:
Experiment in all cases: Inhibition Assay of PI3K
[1] = molecular target: Phosphatidylinositol 4,5-bisphosphate 3-kinase catalytic subunit alpha isoform (Homo sapiens, UniProt P42336)
[2] = molecular target: Phosphatidylinositol 4,5-bisphosphate 3-kinase catalytic subunit beta isoform (Homo sapiens, UniProt P42338)
[3] = molecular target: T1, Phosphatidylinositol 4,5-bisphosphate 3-kinase catalytic subunit delta isoform (Homo sapiens, UniProt O00329)
T1 sequence (O00329 whole entry): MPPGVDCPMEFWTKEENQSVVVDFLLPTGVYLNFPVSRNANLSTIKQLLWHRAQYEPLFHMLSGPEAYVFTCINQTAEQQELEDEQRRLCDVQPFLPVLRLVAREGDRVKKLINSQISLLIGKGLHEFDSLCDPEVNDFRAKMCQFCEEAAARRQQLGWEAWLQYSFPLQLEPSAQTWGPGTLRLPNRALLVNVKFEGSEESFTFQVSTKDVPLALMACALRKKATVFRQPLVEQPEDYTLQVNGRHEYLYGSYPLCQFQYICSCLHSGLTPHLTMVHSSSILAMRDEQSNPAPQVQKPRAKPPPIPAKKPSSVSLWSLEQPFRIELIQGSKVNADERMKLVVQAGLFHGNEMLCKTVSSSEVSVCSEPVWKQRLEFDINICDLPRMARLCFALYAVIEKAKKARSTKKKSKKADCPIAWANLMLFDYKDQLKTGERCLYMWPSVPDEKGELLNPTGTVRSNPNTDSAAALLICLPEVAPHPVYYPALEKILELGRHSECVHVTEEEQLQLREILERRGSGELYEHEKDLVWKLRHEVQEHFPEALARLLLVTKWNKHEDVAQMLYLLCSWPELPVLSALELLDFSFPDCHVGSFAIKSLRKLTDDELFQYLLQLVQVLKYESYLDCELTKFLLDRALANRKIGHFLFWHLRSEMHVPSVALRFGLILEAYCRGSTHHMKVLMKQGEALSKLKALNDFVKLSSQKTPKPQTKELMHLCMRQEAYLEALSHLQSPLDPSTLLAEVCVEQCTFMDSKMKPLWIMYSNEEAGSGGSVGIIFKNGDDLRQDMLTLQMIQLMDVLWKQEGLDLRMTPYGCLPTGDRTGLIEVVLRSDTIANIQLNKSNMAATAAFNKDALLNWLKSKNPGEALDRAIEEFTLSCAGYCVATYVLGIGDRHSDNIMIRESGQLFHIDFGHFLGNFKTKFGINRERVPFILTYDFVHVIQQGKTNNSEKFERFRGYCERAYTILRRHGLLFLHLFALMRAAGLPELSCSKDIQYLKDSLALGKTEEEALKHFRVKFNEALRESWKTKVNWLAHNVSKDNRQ

[4] = molecular target: Phosphatidylinositol 4,5-bisphosphate 3-kinase catalytic subunit gamma isoform (Homo sapiens, UniProt P48736)
Sequence of Phosphatidylinositol 4,5-bisphosphate 3-kinase catalytic subunit gamma isoform (P48736 whole entry, canonical isoform): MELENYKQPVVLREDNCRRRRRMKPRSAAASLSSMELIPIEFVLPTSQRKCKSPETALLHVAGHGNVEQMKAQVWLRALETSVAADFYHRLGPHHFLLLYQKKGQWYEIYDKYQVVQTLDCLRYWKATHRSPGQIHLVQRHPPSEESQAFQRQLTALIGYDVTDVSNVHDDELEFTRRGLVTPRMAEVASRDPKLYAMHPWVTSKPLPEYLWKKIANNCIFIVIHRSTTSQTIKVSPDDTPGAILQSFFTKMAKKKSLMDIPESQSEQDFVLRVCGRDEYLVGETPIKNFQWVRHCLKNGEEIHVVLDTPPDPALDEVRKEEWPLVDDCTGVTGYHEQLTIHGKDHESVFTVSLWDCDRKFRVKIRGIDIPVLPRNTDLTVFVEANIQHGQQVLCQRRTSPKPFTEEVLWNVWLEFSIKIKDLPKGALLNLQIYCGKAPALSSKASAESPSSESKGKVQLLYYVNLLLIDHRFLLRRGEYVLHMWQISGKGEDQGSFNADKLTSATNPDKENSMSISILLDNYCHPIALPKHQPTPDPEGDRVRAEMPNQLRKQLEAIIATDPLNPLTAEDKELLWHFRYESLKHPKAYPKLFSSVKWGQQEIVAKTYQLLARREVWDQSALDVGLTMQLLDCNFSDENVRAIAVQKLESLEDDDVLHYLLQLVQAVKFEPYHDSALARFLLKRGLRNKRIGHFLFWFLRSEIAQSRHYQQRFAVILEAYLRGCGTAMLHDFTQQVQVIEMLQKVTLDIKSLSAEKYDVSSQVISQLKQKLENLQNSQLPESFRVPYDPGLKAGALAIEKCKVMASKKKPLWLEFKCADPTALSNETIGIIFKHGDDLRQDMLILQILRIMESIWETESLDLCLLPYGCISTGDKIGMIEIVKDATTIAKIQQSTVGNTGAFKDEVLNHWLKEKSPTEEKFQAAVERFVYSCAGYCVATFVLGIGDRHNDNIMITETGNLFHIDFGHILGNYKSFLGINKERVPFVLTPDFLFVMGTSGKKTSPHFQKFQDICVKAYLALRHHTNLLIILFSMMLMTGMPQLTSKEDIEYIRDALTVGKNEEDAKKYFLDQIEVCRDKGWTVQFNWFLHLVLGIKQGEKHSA

Sequence of Phosphatidylinositol 4,5-bisphosphate 3-kinase catalytic subunit alpha isoform (P42336 whole entry, canonical isoform): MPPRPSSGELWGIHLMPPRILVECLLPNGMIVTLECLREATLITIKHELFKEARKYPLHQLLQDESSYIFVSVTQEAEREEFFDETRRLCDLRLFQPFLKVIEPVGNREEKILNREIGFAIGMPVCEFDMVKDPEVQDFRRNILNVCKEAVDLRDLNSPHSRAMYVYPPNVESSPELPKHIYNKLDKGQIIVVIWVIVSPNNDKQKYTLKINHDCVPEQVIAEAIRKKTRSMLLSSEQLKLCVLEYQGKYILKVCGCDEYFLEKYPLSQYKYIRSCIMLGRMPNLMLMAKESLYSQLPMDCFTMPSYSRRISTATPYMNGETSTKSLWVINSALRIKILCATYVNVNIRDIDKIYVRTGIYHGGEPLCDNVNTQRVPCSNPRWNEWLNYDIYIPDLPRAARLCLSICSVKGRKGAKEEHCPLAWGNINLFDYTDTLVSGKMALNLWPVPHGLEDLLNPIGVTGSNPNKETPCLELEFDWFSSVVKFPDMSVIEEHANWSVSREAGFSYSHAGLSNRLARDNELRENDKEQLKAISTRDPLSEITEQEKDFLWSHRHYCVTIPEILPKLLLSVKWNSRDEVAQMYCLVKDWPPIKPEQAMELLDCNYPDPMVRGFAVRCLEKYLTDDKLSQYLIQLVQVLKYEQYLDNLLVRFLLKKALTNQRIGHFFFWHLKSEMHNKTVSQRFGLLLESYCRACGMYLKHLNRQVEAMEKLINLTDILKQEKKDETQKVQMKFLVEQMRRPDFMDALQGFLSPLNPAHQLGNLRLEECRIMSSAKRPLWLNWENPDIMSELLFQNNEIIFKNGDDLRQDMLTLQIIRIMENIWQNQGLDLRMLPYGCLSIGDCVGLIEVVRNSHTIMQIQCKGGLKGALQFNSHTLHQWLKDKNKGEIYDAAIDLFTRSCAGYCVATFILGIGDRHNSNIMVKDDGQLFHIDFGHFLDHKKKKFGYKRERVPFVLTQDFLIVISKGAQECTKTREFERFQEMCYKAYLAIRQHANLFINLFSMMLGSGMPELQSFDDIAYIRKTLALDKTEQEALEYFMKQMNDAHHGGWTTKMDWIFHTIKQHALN
Sequence of Phosphatidylinositol 4,5-bisphosphate 3-kinase catalytic subunit beta isoform (P42338 whole entry, canonical isoform): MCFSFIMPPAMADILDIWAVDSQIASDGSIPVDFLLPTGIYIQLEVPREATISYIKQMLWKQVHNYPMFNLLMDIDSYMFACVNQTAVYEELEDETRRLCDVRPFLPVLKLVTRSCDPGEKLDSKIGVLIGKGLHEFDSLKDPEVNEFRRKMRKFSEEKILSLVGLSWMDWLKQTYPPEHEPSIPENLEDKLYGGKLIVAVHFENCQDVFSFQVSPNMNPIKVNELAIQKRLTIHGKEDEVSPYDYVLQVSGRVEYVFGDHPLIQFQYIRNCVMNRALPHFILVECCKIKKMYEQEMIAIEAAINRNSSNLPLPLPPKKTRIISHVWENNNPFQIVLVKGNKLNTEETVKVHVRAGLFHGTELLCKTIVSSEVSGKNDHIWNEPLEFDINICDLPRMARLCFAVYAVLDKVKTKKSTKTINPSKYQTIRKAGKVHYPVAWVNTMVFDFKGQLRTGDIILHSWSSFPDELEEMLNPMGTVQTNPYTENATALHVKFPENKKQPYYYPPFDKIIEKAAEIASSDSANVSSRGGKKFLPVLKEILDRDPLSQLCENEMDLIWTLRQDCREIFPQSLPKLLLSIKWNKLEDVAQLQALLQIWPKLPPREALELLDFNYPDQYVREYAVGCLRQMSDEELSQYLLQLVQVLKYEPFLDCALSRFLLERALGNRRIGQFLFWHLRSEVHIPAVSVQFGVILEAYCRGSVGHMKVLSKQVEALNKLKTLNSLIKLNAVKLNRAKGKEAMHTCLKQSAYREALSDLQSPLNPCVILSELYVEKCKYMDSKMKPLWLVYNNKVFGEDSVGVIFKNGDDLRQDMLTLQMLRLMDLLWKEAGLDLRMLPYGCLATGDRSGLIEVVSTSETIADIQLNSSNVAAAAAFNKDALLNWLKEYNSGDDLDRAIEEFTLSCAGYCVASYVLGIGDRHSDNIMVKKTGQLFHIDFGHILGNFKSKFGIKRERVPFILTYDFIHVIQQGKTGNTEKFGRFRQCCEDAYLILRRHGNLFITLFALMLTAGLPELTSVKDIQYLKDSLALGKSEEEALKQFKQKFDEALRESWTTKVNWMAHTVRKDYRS

| IC50 [1] [µM] | IC50 [2] [µM] | IC50 [3] [µM] | IC50 [4] [µM] | Structure (SMILES) |
| --- | --- | --- | --- | --- |
| > 10 | > 10 | > 10 | > 10 | C[C@H]1CN(c2cnc3cccc(-c4ccc5oc(N)nc5c4)c3n2)CCN1 [US11547697, Compound 342] |
| > 10 | > 10 | > 10 | > 10 | Cc1c(-c2ccc3oc(N)nc3c2)ccc2ncc(C(=O)N3CCOCC3)n12 [US11547697, Compound 349] |
| > 10 | > 10 | > 10 | > 10 | Cc1cc2oc(N)nc2cc1-c1ccc2ncc(C(=O)N3CCOCC3)n2c1 [US11547697, Compound 352] |
| > 10 | > 10 | > 10 | > 10 | Cc1c(-c2ccc3ncc(N4CC(N5CCOCC5)C4)nc3c2)ccc2oc(N)nc12 [US11547697, Compound 362] |
| > 10 | > 10 | > 10 | > 10 | C[C@H]1CN(c2cnc3ccc(-c4cccc5c(N)noc45)cc3n2)CCN1 [US11547697, Compound 363] |
| > 10 | > 10 | > 10 | > 10 | Cc1c(-c2ccc3ncc(C(=O)N4CCOCC4)n3c2)ccc2oc(N)nc12 [US11547697, Compound 369] |
| > 10 | > 10 | > 10 | > 10 | CC(C)N1CCN(c2cnc3ccc(-c4ccc5oc(N)nc5c4)cc3n2)C(=O)C1 [US11547697, Compound 392] |
| > 10 | > 10 | > 10 | > 10 | C[C@H]1CN(c2cnc3scc(-c4ccc5oc(N)nc5c4)c3c2)CCN1 [US11547697, Compound 399] |
| > 10 | > 10 | > 10 | > 10 | Nc1nc2cc(-c3nc4cc(-c5cccnc5)cnc4s3)ccc2o1 [US11547697, Compound 402] |
| > 10 | > 10 | > 10 | > 10 | Nc1nc2cc(-c3ccc4nc(N)c(N5CC(N6CCOCC6)C5)nc4c3)ccc2o1 [US11547697, Compound 404] |
| > 10 | > 10 | > 10 | > 10 | CS(=O)(=O)Nc1nc2cc(-c3ccc4ncc(C(=O)N5CCOCC5)n4c3)ccc2o1 [US11547697, Compound 405] |
| > 10 | > 10 | > 10 | > 10 | CN1CCC(Nc2nc3cc(-c4ccc5ncc(C(=O)N6CCOCC6)n5c4)ccc3o2)CC1 [US11547697, Compound 408] |
| > 10 | > 10 | > 10 | > 10 | CC(=O)n1nc(N)c2ccc(-c3ccc4oc(N)nc4c3)cc21 [US11547697, Compound 426] |
| > 10 | > 10 | > 10 | > 10 | Nc1nc2cc(-c3ccc4[nH]nc(N)c4c3)ccc2o1 [US11547697, Compound 427] |
| > 10 | > 10 | > 10 | > 10 | COc1ccc(CNc2n[nH]c3cc(-c4ccc5oc(N)nc5c4)ccc23)cc1 [US11547697, Compound 429] |
| > 10 | > 10 | > 10 | > 10 | CC(=O)Nc1n[nH]c2ccc(-c3ccc4oc(N)nc4c3)cc12 [US11547697, Compound 431] |
| > 10 | > 10 | > 10 | > 10 | O=C(c1cnc2ccc(-c3cccc(S(=O)(=O)Nc4ccccc4)c3)cn12)N1CCOCC1 [US11547697, Compound 440] |
| > 10 | > 10 | > 10 | > 10 | O=C(c1cnc2ccc(-c3cccc(S(=O)(=O)Nc4cc(F)ccc4F)c3)cn12)N1CCOCC1 [US11547697, Compound 441] |
| > 10 | > 10 | > 10 | > 10 | CNS(=O)(=O)c1cccc(-c2ccc3ncc(C(=O)N4CCOCC4)n3c2)c1 [US11547697, Compound 442] |
| > 10 | > 10 | > 10 | > 10 | CS(=O)(=O)Nc1cccc(-c2ccc3ncc(C(=O)N4CCOCC4)n3c2)c1 [US11547697, Compound 443] |
| > 10 | > 10 | > 10 | > 10 | CNS(=O)(=O)c1cc(-c2ccc3ncc(C(=O)N4CCOCC4)n3c2)ccc1OC [US11547697, Compound 445] |
| > 10 | > 10 | > 10 | > 10 | COc1ccc(-c2ccc3ncc(C(=O)N4CCOCC4)n3c2)cc1NS(C)(=O)=O [US11547697, Compound 456] |
| > 10 | > 10 | > 10 | > 10 | Nc1n[nH]c2cc(-c3ccc4ncc(C(=O)N5CCOCC5)n4c3)ccc12 [US11547697, Compound 487] |
| > 10 | > 10 | > 10 | > 10 | Nc1noc2cc(-c3ccc4ncc(C(=O)N5CCOCC5)n4c3)ccc12 [US11547697, Compound 488] |
| > 10 | > 10 | > 10 | > 10 | Nc1n[nH]c2c(-c3ccc4ncc(C(=O)N5CCOCC5)n4c3)cccc12 [US11547697, Compound 490] |
| > 10 | > 10 | > 10 | > 10 | Nc1noc2c(-c3ccc4ncc(C(=O)N5CCOCC5)n4c3)cccc12 [US11547697, Compound 491] |
| > 10 | > 10 | > 10 | > 10 | O=C(c1cnc2ccc(-c3ccc4c(Nc5ccccc5)nsc4c3)cn12)N1CCOCC1 [US11547697, Compound 505] |
| > 10 | > 10 | > 10 | > 10 | Cc1cc2ncc(C(=O)N3CCOCC3)n2cc1-c1ccc2oc(N)nc2c1 [US11547697, Compound 507] |
| > 10 | > 10 | > 10 | > 10 | O=C(c1cnc2ccc(-c3ccc4c(Nc5ccccc5)noc4c3)cn12)N1CCOCC1 [US11547697, Compound 509] |
| > 10 | > 10 | > 10 | > 10 | CC(C)N1CCC(n2cnc3ccc(-c4cncc(NS(C)(=O)=O)c4)cc3c2=O)CC1 [US11547697, Compound 520] |
